In patent US20060223708A1, “Substituted N-[pyrimidin-2-ylmethyl]carboxamides and their use as herbicides and plant growth regulators” (Bayer CropScience GmbH, priority 2005, published 2006):

Legend:
Amaranthus retroflexus [1] = assay: Pre-emergence effect on weeds; format: in vivo; settings: dosage 1000 g of a.i./ha, scored visually after 3 to 4 weeks
Description: (§1) 1. Pre-Emergence Effect on Weeds
(§2) Seeds of monocotyledonous and dicotyledonous weed plants are placed into sandy loam soil in cardboard pots and covered with soil. The compounds of the invention, formulated as wettable powders or emulsion concentrates, are then applied to the surface of the soil cover in the form of aqueous suspensions or emulsions at an application rate of 600 to 800 l of water/ha (converted), in various dosages. After the treatment, the pots are placed in a greenhouse and kept under good growth conditions for the weeds. After the test plants have emerged, the damage to the plants or the negative effect on the emergence was scored visually after a test period of 3 to 4 weeks by comparison with untreated controls. Here, the compounds according to the invention have excellent activity against a broad spectrum of economically important monocotyledonous and dicotyledonous harmful plants, see Tables A to G.

Setaria viridis [2] = assay: Pre-emergence effect on weeds; format: in vivo; settings: dosage 1000 g of a.i./ha, scored visually after 3 to 4 weeks
Description: as §1, §2

Stellaria media = assay: Pre-emergence effect on weeds; format: in vivo; settings: dosage 1000 g of a.i./ha, scored visually after 3 to 4 weeks
Description: as §1, §2

Lolium multiflorum [3] = assay: Pre-emergence effect on weeds; format: in vivo; settings: dosage 1000 g of a.i./ha, scored visually after 3 to 4 weeks
Description: as §1, §2

Amaranthus retroflexus [4] = assay: Herbicidal post-emergence effect on harmful plants; format: in vivo; settings: dosage 1000 g of a.i./ha, rated after 3 to 4 weeks
Procedure: (§3) 2. Herbicidal Post-Emergence Effect on Harmful Plants
(§4) Seeds of monocotyledonous and dicotyledonous harmful plants are placed in sandy loam soil in cardboard pots, covered with soil and cultivated in a greenhouse under good growth conditions. Two to three weeks after sowing, the test plants are treated at the three-leaf stage. The compounds according to the invention, formulated in the form of wettable powders or emulsion concentrates, are sprayed onto the surface of the green parts of the plants at an application rate of 600 to 800 l of water/ha (converted), in various dosages. After the test plants have remained in the greenhouse under optimum growth conditions for 3 to 4 weeks, the effect of the compounds is rated. Here, the compounds according to the invention have excellent activity against a broad spectrum of economically important monocotyledonous and dicotyledonous harmful plants, see Tables H to J.

Cyperus iria = assay: Herbicidal post-emergence effect on harmful plants; format: in vivo; settings: dosage 1000 g of a.i./ha, rated after 3 to 4 weeks
Procedure: as §3, §4

Setaria viridis [5] = assay: Herbicidal post-emergence effect on harmful plants; format: in vivo; settings: dosage 1000 g of a.i./ha, rated after 3 to 4 weeks
Procedure: as §3, §4

Echinochloa crus galli = assay: Herbicidal post-emergence effect on harmful plants; format: in vivo; settings: dosage 1000 g of a.i./ha, rated after 3 to 4 weeks
Procedure: as §3, §4

[6] = Pre-emergence effect on weeds; format: in vivo, Sinapis arvensis; settings: dosage 1000 g of a.i./ha, scored visually after 3 to 4 weeks
Description: as §1, §2

[7] = Pre-emergence effect on weeds; format: in vivo, Avena fatua; settings: dosage 1000 g of a.i./ha, scored visually after 3 to 4 weeks
Description: as §1, §2

Lolium multiflorum [8] = assay: Herbicidal post-emergence effect on harmful plants; format: in vivo; settings: dosage 1000 g of a.i./ha, rated after 3 to 4 weeks
Procedure: as §3, §4

Structure (SMILES) | Herbicidal effect AMARE (Amaranthus retroflexus [1]) | Herbicidal effect SETVI (Setaria viridis [2]) | Herbicidal effect STEME (Stellaria media) | Herbicidal effect LOLMU (Lolium multiflorum [3]) | Herbicidal effect AMARE (Amaranthus retroflexus [4]) | Herbicidal effect CYPIR (Cyperus iria) | Herbicidal effect SETVI (Setaria viridis [5]) | Herbicidal effect ECHCG (Echinochloa crus galli) | Herbicidal effect SINAL [6] | Herbicidal effect AVESA [7] | Herbicidal effect LOLMU (Lolium multiflorum [8])
Cc1cc(Oc2cccc(C(F)(F)F)c2)nc(CNC(=O)C2CC2)n1 [Compound 1-206, N-[(4-methyl-6-{(3-trifluoromethyl)phenoxy}pyrimidin-2-yl)methyl]cyclopropanecarboxamide] | 100% | 100% | 100% | 100% | – | – | – | – | – | – | –
Cc1cc(Oc2cccc(C(F)(F)F)c2)nc(CNC(=O)C2CCC2)n1 [Compound 1-505] | 100% | 100% | 100% | 100% | – | – | – | – | – | – | –
Cc1cc(Oc2csc(C(F)(F)F)c2)nc(CNC(=O)C2CC2)n1 [Compound 2-205] | 100% | 100% | 100% | – | 90% | 90% | 90% | 90% | 90% | – | –
CCc1cc(Oc2csc(C(F)(F)F)c2)nc(CNC(=O)C2CC2)n1 [Compound 2-304] | 100% | 100% | 100% | – | – | – | – | – | 100% | – | –
CCc1cc(Oc2ccnc(C(F)(F)F)c2)nc(CNC(=O)C2CC2)n1 [Compound 3-306, N-[(4-ethyl-6-{[2-(trifluoromethyl)pyridin-4-yl]oxy}pyrimidin-2-yl)methyl]cyclopropanecarboxamide] | 100% | 100% | – | – | 90% | 100% | – | 90% | 100% | 100% | 90%
Cc1cc(Oc2cc(C(F)(F)F)nn2C)nc(CNC(=O)C2CC2)n1 [Compound 5-206] | – | 100% | 100% | 100% | 90% | 100% | – | 100% | 100% | – | 90%
CCc1cc(Oc2cc(C(F)(F)F)nn2C)nc(CNC(=O)C(F)(F)F)n1 [Compound 5-319] | – | 100% | 100% | 100% | – | – | – | – | 100% | – | –
